Laboratory results as given in patent publication US20210198277A1, “AMINE-SUBSTITUTED ARYL OR HETEROARYL COMPOUNDS” (Epizyme, Inc., priority 2016, published 2021).

Biological target: T1, EHMT2 (Homo sapiens, UniProt Q96KQ7)
T1 construct: host or cells: MDA-MB-231
T1 sequence (Q96KQ7 1-1210): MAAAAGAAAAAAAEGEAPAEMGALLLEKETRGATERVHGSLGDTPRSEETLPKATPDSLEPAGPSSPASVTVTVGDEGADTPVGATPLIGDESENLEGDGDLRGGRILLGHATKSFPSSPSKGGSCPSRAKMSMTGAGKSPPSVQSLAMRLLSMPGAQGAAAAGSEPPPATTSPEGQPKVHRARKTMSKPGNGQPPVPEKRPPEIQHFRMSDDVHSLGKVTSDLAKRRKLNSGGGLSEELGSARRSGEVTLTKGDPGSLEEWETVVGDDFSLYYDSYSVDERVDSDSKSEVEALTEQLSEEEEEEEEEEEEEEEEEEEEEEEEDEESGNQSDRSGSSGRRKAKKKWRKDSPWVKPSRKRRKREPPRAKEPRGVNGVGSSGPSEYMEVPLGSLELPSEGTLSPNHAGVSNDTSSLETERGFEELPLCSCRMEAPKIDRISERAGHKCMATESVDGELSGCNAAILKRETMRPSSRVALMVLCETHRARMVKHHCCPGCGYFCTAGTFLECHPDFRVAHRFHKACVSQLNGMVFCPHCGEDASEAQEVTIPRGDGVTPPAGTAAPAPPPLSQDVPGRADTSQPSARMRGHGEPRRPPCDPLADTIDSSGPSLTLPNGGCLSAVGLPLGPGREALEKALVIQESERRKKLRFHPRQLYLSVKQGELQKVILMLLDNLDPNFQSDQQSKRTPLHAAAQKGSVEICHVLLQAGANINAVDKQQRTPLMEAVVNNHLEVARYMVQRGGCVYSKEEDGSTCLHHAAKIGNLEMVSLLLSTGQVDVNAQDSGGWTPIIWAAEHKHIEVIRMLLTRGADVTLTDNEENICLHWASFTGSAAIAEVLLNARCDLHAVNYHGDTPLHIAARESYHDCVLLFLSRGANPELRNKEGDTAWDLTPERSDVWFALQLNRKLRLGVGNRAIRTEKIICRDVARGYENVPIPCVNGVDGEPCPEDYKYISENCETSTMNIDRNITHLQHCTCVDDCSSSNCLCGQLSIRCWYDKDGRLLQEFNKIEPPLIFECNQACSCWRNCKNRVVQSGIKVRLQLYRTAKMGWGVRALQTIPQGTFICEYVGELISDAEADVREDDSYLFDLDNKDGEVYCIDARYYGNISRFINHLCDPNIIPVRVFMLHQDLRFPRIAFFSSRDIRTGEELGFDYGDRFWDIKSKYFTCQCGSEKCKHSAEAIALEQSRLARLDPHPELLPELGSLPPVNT
Assay: MDA-MB-231 H3K9me2 in-cell Western assay (EHMT2 ICW)
Format: cell-based
Details: Table II; MDA-MB-231 H3K9me2 in-cell Western; read-out: EHMT2 ICW (IC50 μM)
Method in brief: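 Cells seeded at 3,000/well onto pre-dispensed compound; 30 min RT, then 48 h 37 °C/5% CO2. PFA fix, block, α-H3K9me2 1:800 o/n 4 °C, 800CW secondary + DRAQ5. Odyssey scan 700/800 nm; ratio → % inhibition → 4-parameter IC50.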

| SMILES | IC50 [µM] |
| --- | --- |
| CNc1nc(Nc2ccc(OC)c(OCCCN3CCCC3)c2)ncc1C(F)(F)F [Compound 234] | > 10 |
| CNc1ncc(C(F)(F)F)c(Nc2ccc(OC)c(OCCCN3CCCC3)c2)n1 [Compound 235] | > 10 |
| CNc1nc(Nc2ccc(OC)c(OCCCN3CCCC3)c2)nc(C)c1F [Compound 236] | 0.1 to 1 |
| CNc1ccnc(Nc2ccc(OC)c(OCCN3CCOCC3)c2)n1 [Compound 237] | > 10 |
| CNc1ccnc(Nc2ccc3c(c2)N(C(=O)CCN(C)C)CC3)n1 [Compound 239] | > 10 |
| CCc1cc(NC)nc(Nc2ccc(OC)c(OCCCN3CCCC3)c2)n1 [Compound 240] | 0.1 to 1 |
| COc1ccc(Nc2nccc(CNC3CCOCC3)n2)cc1OCCCNc1ccccc1 [Compound 241] | > 10 |
| COc1ccc(Nc2cnnc(NCC3CCN(C(C)=O)CC3)c2)cc1OCCCN1CCCC1 [Compound 242] | > 10 |
| COc1ccc(Nc2nccc(NCC3CCOCC3)n2)cc1OC1CC2(C1)CN(C)C2 [Compound 243] | > 10 |
| CNc1ccnc(Nc2ccc(F)c(OCCCN3CCCC3)c2)n1 [Compound 244] | > 10 |
| COc1ccc(Nc2nccc(N)n2)cc1OCCCN1CCCC1 [Compound 245] | 1 to 10 |
| CNc1cnnc(Nc2ccc(OC)c(OCCCN3CCCC3)c2)c1 [Compound 246] | > 10 |
| CNc1cncc(Nc2ccc(OC)c(OCCCN3CCCC3)c2)n1 [Compound 247] | 1 to 10 |
| CNc1cc(Nc2cc(OCCCN3CCCC3)c(OC)cn2)ccn1 [Compound 248] | 0.1 to 1 |
| COc1ccc(Nc2nccc3[nH]ncc23)cc1OCCCN1CCCC1 [Compound 249] | > 10 |
| COc1ccc(Nc2ccnc3[nH]ccc23)cc1OCCCN1CCCC1 [Compound 250] | > 10 |
| CC(C)Nc1ccnc(Nc2cccc(OCCCN3CC[C@@H](F)C3)c2)n1 [Compound 251] | > 10 |
| CNc1ccnc(Nc2cccc(OC[C@H](O)CN3CCCC3)c2)n1 [Compound 252] | 1 to 10 |
| CNc1ccnc(Nc2cccc(OC[C@@H](O)CN3CCCC3)c2)n1 [Compound 253] | > 10 |
